Assay in all cases: growth of human tumour cells (NCI), 48 h
For assay [1], the system named is A498 renal.
Assay [2] has as its system A549 NSCLC.
Assay [3] relates to EKVX NSCLC.
Assay [4] deals with K-562 leukemia.
The subject of assay [5] is MDA-MB-435.
In assay [6] the test system is OVCAR-5 ovarian.
In assay [7] the test system is OVCAR-8 ovarian.
The subject of assay [8] is SF-268 CNS.
The subject of assay [9] is SK-MEL-2 melanoma.
Assay [10] deals with UACC-62 melanoma.

Each structure is given as a SMILES string. Several values for one entry are separate records, joined by “and”; a condition that tells them apart may be missing. Equal entries are not always repeated.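 Cells were grown in 96-well plates and exposed to each compound for 48 hours at five concentrations; endpoints were interpolated linearly between bracketing concentrations, or set to the highest concentration if not reached. At the GI50, growth is halved. TGI marks complete inhibition of growth.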

As for `CCN(CC)Cc1cc2[nH]c3c4ccc(Cl)cc4ncc3c2cc1OC`, the GI50 in [1] is 15.9 µM and 10 µM; in [2] it was 3.46 µM and 3.16 µM; in assay [3], 12.1 µM and 11.8 µM; in [4] it was 3.39 µM and 1.89 µM; in assay [5] it was 1.78 µM and 1.75 µM; in assay [6], 12.4 µM and 14.5 µM. The GI50 in assay [7] is 3.63 µM and 2.5 µM; in assay [8] it was 3.33 µM and 2.9 µM; in assay [9], 7.39 µM and 16.5 µM; in assay [10] it was 15.5 µM and 1.81 µM. In addition, the TGI in assay [1] was 29.4 µM and 21.7 µM; in assay [2], 13.3 µM and 10.5 µM; in [3], 24.9 µM and 24.4 µM; in assay [4], > 20.5 µM and 4.28 µM; in assay [5] it was 3.55 µM and 3.4 µM; in assay [6] it was 25.9 µM and 27.5 µM. Moreover, the TGI in assay [7] is 12.2 µM and 7.41 µM; in assay [8], 10 µM and 9.2 µM; in assay [9], 16.6 µM and 31.6 µM; in assay [10] it was 29.4 µM and 3.46 µM.

For `Nc1ncnc2c1ncn2C1OC(CO)C(O)C1N` (stereo not given), the TGI in [1], in [2], in assay [3], in [4], in [5] and in assay [6] was above 100 µM throughout. The TGI in [7], in assay [8], in assay [9] and in assay [10] was above 100 µM throughout.

As to `CN(CCCNC(=O)CCOCCOCCOCCNC(=O)Cc1ccc2ccc3cccc4ccc1c2c34)CCCNc1cc(-c2ccc3ccccc3c2)nc2ccccc12`, the GI50 is 1.38 µM in assay [1]; 0.629 µM in [2]; 0.48 µM in assay [3]; 0.0668 µM in assay [4]; 0.108 µM in assay [5]; 0.635 µM in [6]. Also, the GI50 was 0.341 µM in assay [7], 0.54 µM in assay [8], 4.84 µM in [9] and 1.12 µM in [10]. In addition, the TGI in assay [1] is 2.92 µM; in assay [2] it was 1.74 µM; in assay [3], 0.959 µM; in [4], 0.146 µM; in assay [5], 0.403 µM; in assay [6], 1.18 µM. In addition, the TGI was found to be 0.735 µM in assay [7], 1.14 µM in assay [8], 13.2 µM in assay [9] and 4.55 µM in assay [10].

The record behind these values is PubChem BioAssay (NCI).
